“And” between values parts separate entries of the source, which are not always exact repeats. Identical values can stand only once. Like-named read-outs stand apart in the source and are kept apart here.
Key:
Assay type in all cases: cell-based
[1] = system: HeLa cells; experiment: MTT assay for cell proliferation, HeLa; set-up: key to Inhibitory rate: inhibition rate = 1 - mean A490 sample/mean A490 control (fraction); conditions: for inhibition at 16 µM: preliminary screening, mean±SD, read-out: Inhibition rate (16μM), 48 h, Hela
Procedure, shortened: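 Proliferation read-out is MTT reduction (4 h) after 48 h treatment with KJ-5 or KJ-12 across 0, 1, 2, 4, 8, 16 and 32 μM. Cultures in 10% FBS DMEM, 37 °C, plated at 10^5 cells/mL; A490 of DMSO-dissolved formazan compared with untreated control.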

[2] = system: HepG2 cells; experiment: Transwell invasion assay (Matrigel); conditions: HepG2, 24 h treatment, vs control
Experimental: HepG2 cells were treated with either KJ-5 or KJ-12 for 24 h. Then, the cells were suspended and seeded into the upper chamber of a 24-well Transwell plate (Corning Inc., United States) in serum-free medium. The cells were cultured for 24 h at 37°C; a medium containing 20% FBS as a chemoattractant was added to the lower chamber. HepG2 cells that had invaded through the membrane were fixed with 4% paraformaldehyde for 20 min and stained with 0.1% crystal violet. Five random fields were then imaged and quantified using an inverted fluorescence microscope (Axio Observer3, Germany). To assess invasion, transwell assays were performed in a similar manner, with the exception of coating the upper chamber of the Transwell with 100 μL of diluted Matrigel solution per well.

[3] = system: p-H2AX in HepG2 cells; experiment: H2AX phosphorylation by immunofluorescence and Western blotting; conditions: HepG2, 24 h
Experimental: HepG2 cells were plated in laser confocal dishes (Nest, China), followed by the addition of KJ-5 or KJ-12 for 24 h. Then, 4% paraformaldehyde was added to each laser confocal dish for 20 min after rinsing with PBS. Before the goat serum was added to block for 1 h, 0.5% Triton X-100 was used to penetrate HepG2 for 30 min. Subsequently, the cells were incubated with p-H2AX (Cell Signaling Technology, MA, United States) at a 1:800 dilution at 4°C overnight. The cells were rinsed with PBS and incubated with Alexa Fluor 488 (Proteintech, Wuhan, China) at a 1:1000 dilution in dark at room temperature for 1 h. DAPI was used to stain the cell nucleus for 5 min. Then, the cells were rinsed with PBS before observing the cells under a laser confocal microscope (Nikon, Tokyo, Japan).
After being pretreated with either KJ-5 or KJ-12 at concentrations of 2, 4, or 8 μM for 24 h, the cells were harvested and lysed using an ice-cold cell lysis buffer from Beyotime Biotechnology (Shanghai, China). The proteins were mixed with a loading buffer and denatured by heating at 95°C–100°C for 5–10 min. Equal amounts of protein were loaded onto a 10% SDS-PAGE gel along with a molecular weight marker and separated by electrophoresis for 2 h. The separated proteins were transferred onto a PVDF membrane, which was blocked with 5% non-fat milk for non-specific binding sites on the membrane. […]

[4] = system: HepG2 cells; experiment: Annexin V-FITC/PI staining for cell apoptosis (flow cytometry); conditions: 24 h; for Proportion of apoptotic cells: Annexin-V/PI; for Cell apoptosis (in words): HepG2, 2, 4, 8 μM
Experimental: HepG2 cells were plated in a 6-well plate at a density of 5 × 10^6 cells/well and incubated for 24 h. Then, the original culture medium was replaced with 2 mL DMEM containing KJ-5 or KJ-12 (2, 4, and 8 μM) and incubated for 24 h. After incubation with KJ-5 or KJ-12, the cells were washed with cold PBS and then resuspended in 100 µL binding buffer at a concentration of 1 × 10^6 cells/mL. Then, 5 μl of FITC Annexin V and 5 µl of PI were added to the solution. The cells were gently vortexed and incubated for 15 min at room temperature (25°C) in the dark. Subsequently, 400 µL binding buffer was added to each tube, and the samples were analyzed by flow cytometry (BD Accuri™ C6 Plus) within 1 h.

[5] = system: normal hepatic cells L02; experiment: MTT inhibition rate in normal hepatic cells L02; conditions: for inhibition at 1 µM / inhibition at 2 µM / inhibition at 4 µM / inhibition at 8 µM / inhibition at 16 µM: Homo sapiens, L02, 48 h, 48 h; for inhibition at 1 µM: L02, 1 μM; for inhibition at 2 µM: L02, 2 μM; for inhibition at 4 µM: L02, 4 μM; for inhibition at 8 µM: L02, 8 μM; for inhibition at 16 µM: L02, 16 μM; for Average OD / Inhibitory rate / ODtreated/ODcontrol: L02 cells, 3 repeat experiments; for Average OD: average of 5 wells; for Inhibitory rate / ODtreated/ODcontrol: fraction
[6] = Hela, group 1 (concentration), fraction, single experiments
[7] = Hela, group 1 (concentration), single experiments
[8] = Hela, group 2 (concentration), fraction, single experiments
[9] = Hela, group 2 (concentration), single experiments
[10] = Hela, group 4 (concentration), fraction, single experiments
[11] = Hela, group 4 (concentration), single experiments
[12] = Hela, group 8 (concentration), fraction, single experiments
[13] = Hela, group 8 (concentration), single experiments
[14] = Hela, group 16 (concentration), fraction, single experiments
[15] = Hela, group 16 (concentration), single experiments
[16] = Hela, group 32 (concentration), fraction, single experiments
[17] = Hela, group 32 (concentration), single experiments
[18] = Hela, one of three experiments, unit inferred, read-out: IC50, single experiment, Hela
[19] = Homo sapiens, HeLa, 48 h, HeLa, 48 h, MTT, read-out: IC50 HeLa
[20] = Homo sapiens, HeLa, one of three experiments, unit inferred, read-out: IC50, single experiment, Hela
[21] = Homo sapiens, Hela, 48 h, unit inferred

With `COc1c2n(cc(C(=O)Nc3cccc(-c4cn(-c5c(C)cc(C)cc5C)nn4)c3)c1=O)C[C@H]1OC[C@H](C)N1C2=O` [KJ-12] the Inhibitory rate [1, 6] was 0.2971 and 0.2883 and 0.2551, the ODtreated/ODcontrol [1, 7] was 0.7029 and 0.7117 and 0.7449 and the Inhibitory rate [1, 8] was 0.3155 and 0.3221 and 0.3198. The ODtreated/ODcontrol [1, 9] was 0.6845 and 0.6779 and 0.6802, the Inhibitory rate [1, 10] was 0.3594 and 0.3533 and 0.3688 and the ODtreated/ODcontrol [1, 11] was 0.6406 and 0.6467 and 0.6312. For the same compound, the Inhibitory rate [1, 12] was 0.7153 and 0.627 and 0.5661, the ODtreated/ODcontrol [1, 13] was 0.2847 and 0.373 and 0.4339 and the Inhibitory rate [1, 14] was 0.7226 and 0.7292 and 0.7302. For the same compound, the ODtreated/ODcontrol [1, 15] was 0.2774 and 0.2708 and 0.2698, the Inhibitory rate [1, 16] was 0.7312 and 0.7755 and 0.8162 and the ODtreated/ODcontrol [1, 17] was 0.2688 and 0.2245 and 0.1838. For the same compound, the IC50 [1, 18] was 5.49 µM and 4.82 µM, the Inhibitory rate ([1]; Hela, fraction, per experiment) was 0.7218 and 0.7353 and 0.6986 and the ODtreated/ODcontrol ([1]; Hela, fraction, per experiment) was 0.2782 and 0.2647 and 0.3014. It also gave an IC50 [1, 19] of 5.17 ± 0.34 µM, an IC50 [1, 20] of 5.19 µM and an inhibition at 16 µM [1, 21] of 71.9 ± 1.86%. For the same compound, the “Invasion of HepG2 cells (transwell with Matrigel)” value [2] was “significantly impaired”, the “Expression of p-H2AX (DNA damage marker)” value [3] was “increased the expression of p-H2AX” and the “Proportion of apoptotic cells” value ([4]; HepG2, 2 μM) was 21.2 ± 1.4%. The “Proportion of apoptotic cells” value ([4]; HepG2, 4 μM) was 30.5 ± 1.1%, the “Proportion of apoptotic cells” value ([4]; HepG2, 8 μM) was 44.4 ± 1.9% and the “Cell apoptosis (in words)” value [4] was “significantly caused cell apoptosis in a concentration-dependent manner”. The inhibition at 1 µM [5] was 10.8 ± 0.95%, the inhibition at 2 µM [5] was 13.6 ± 0.75% and the inhibition at 4 µM [5] was < 20%. The inhibition at 8 µM [5] was 22.3 ± 2.93%, the inhibition at 16 µM [5] was 30.5 ± 1.2% and the “Average OD” value ([5]; Group 1) was 1.123 and 1.0994 and 0.8196. The Inhibitory rate ([5]; Group 1) was 0.1145 and 0.1117 and 0.09678, the ODtreated/ODcontrol ([5]; Group 1) was 0.8855 and 0.8883 and 0.9032 and the “Average OD” value ([5]; Group 2) was 1.1022 and 1.0518 and 0.793. For the same compound, the Inhibitory rate ([5]; Group 2) was 0.1433 and 0.1281 and 0.1359, the ODtreated/ODcontrol ([5]; Group 2) was 0.8567 and 0.8719 and 0.8641 and the “Average OD” value ([5]; Group 4) was 1.0412 and 1.0106 and 0.783. The Inhibitory rate ([5]; Group 4) was 0.1541 and 0.1764 and 0.1697, the ODtreated/ODcontrol ([5]; Group 4) was 0.8459 and 0.8236 and 0.8303 and the “Average OD” value ([5]; Group 8) was 1.0104 and 0.9056 and 0.7302. For the same compound, the Inhibitory rate ([5]; Group 8) was 0.2111 and 0.2008 and 0.256, the ODtreated/ODcontrol ([5]; Group 8) was 0.7889 and 0.7992 and 0.744 and the “Average OD” value ([5]; Group 16) was 0.8912 and 0.8512 and 0.6312. The Inhibitory rate ([5]; Group 16) was 0.3181 and 0.295 and 0.3007, the ODtreated/ODcontrol ([5]; Group 16) was 0.6819 and 0.705 and 0.6993 and the “Average OD” value ([5]; Group 32) was 0.7446 and 0.6962 and 0.5126. For the same compound, the Inhibitory rate ([5]; Group 32) was 0.4462 and 0.411 and 0.428 and the ODtreated/ODcontrol ([5]; Group 32) was 0.5538 and 0.589 and 0.572.
In the case of `COc1c2n(cc(C(=O)Nc3cccc(-c4cn(-c5cc(C(F)(F)F)cc(C(F)(F)F)c5)nn4)c3)c1=O)C[C@H]1OC[C@H](C)N1C2=O` [KJ-5], the Inhibitory rate [1, 6] is reported as 0.2915 and 0.2462 and 0.2143, the ODtreated/ODcontrol [1, 7] is reported as 0.7085 and 0.7538 and 0.7857 and the Inhibitory rate [1, 8] is reported as 0.3879 and 0.3569 and 0.2882. For the same compound, the ODtreated/ODcontrol [1, 9] was 0.6121 and 0.6431 and 0.7118, the Inhibitory rate [1, 10] was 0.418 and 0.3669 and 0.3302 and the ODtreated/ODcontrol [1, 11] was 0.582 and 0.6331 and 0.6698. For the same compound, the Inhibitory rate [1, 12] was 0.5915 and 0.5007 and 0.5011, the ODtreated/ODcontrol [1, 13] was 0.4085 and 0.4993 and 0.4989 and the Inhibitory rate [1, 14] was 0.834 and 0.8197 and 0.8242. The ODtreated/ODcontrol [1, 15] was 0.166 and 0.1803 and 0.1758, the Inhibitory rate [1, 16] was 0.8525 and 0.86 and 0.8737 and the ODtreated/ODcontrol [1, 17] was 0.1475 and 0.14 and 0.1263. The IC50 [1, 18] was 5.87 µM, the Inhibitory rate ([1]; Hela, fraction, per experiment) was 0.8059 and 0.7883 and 0.7664 and the ODtreated/ODcontrol ([1]; Hela, fraction, per experiment) was 0.1941 and 0.2117 and 0.2336. It also gave an IC50 [1, 19] of 5.02 ± 0.94 µM, an IC50 [1, 20] of 5.16 µM and an inhibition at 16 µM [1, 21] of 79.4 ± 1.04%. The “Invasion of HepG2 cells (transwell with Matrigel)” value [2] was “significantly impaired”, the “Expression of p-H2AX (DNA damage marker)” value [3] was “increased the expression of p-H2AX” and the “Proportion of apoptotic cells” value ([4]; HepG2, 2 μM) was 21.8 ± 1.3%. For the same compound, the “Proportion of apoptotic cells” value ([4]; HepG2, 4 μM) was 30.9 ± 1.4%, the “Proportion of apoptotic cells” value ([4]; HepG2, 8 μM) was 52.7 ± 1.7% and the “Cell apoptosis (in words)” value [4] was “significantly caused cell apoptosis in a concentration-dependent manner”. For the same compound, the inhibition at 1 µM [5] was 9.85 ± 1.6%, the inhibition at 2 µM [5] was 14.9 ± 1.97% and the inhibition at 4 µM [5] was < 20%. For the same compound, the inhibition at 8 µM [5] was 27.1 ± 1.03%, the inhibition at 16 µM [5] was 34.9 ± 2.22% and the “Average OD” value ([5]; Group 1) was 1.014 and 1.1374 and 1.3158. For the same compound, the Inhibitory rate ([5]; Group 1) was 0.1149 and 0.09786 and 0.08274, the ODtreated/ODcontrol ([5]; Group 1) was 0.8851 and 0.9021 and 0.9173 and the “Average OD” value ([5]; Group 2) was 0.969 and 1.07 and 1.2316. For the same compound, the Inhibitory rate ([5]; Group 2) was 0.1715 and 0.1379 and 0.1371, the ODtreated/ODcontrol ([5]; Group 2) was 0.8285 and 0.8621 and 0.8629 and the “Average OD” value ([5]; Group 4) was 0.922 and 1.0172 and 1.2162. For the same compound, the Inhibitory rate ([5]; Group 4) was 0.1819 and 0.1797 (2×), the ODtreated/ODcontrol ([5]; Group 4) was 0.8181 and 0.8203 (2×) and the “Average OD” value ([5]; Group 8) was 0.8272 and 0.9114 and 1.0668. The Inhibitory rate ([5]; Group 8) was 0.2824 and 0.2641 and 0.265, the ODtreated/ODcontrol ([5]; Group 8) was 0.7176 and 0.7359 and 0.735 and the “Average OD” value ([5]; Group 16) was 0.7216 and 0.9442. The Inhibitory rate ([5]; Group 16) was 0.3649 and 0.358 and 0.3234, the ODtreated/ODcontrol ([5]; Group 16) was 0.6351 and 0.642 and 0.6766 and the “Average OD” value ([5]; Group 32) was 0.428 and 0.4844 and 0.436. For the same compound, the Inhibitory rate ([5]; Group 32) was 0.7067 and 0.6192 and 0.6094 and the ODtreated/ODcontrol ([5]; Group 32) was 0.2933 and 0.3808 and 0.3906.
